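1) Cells in 96-well plates. 2) Compound, 48 h, 5 concentrations. 3) Linear interpolation between surrounding doses. 4) Unreached endpoint = highest concentration. GI50: concentration for 50% inhibition of growth. TGI: total growth inhibition.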
Assays:
Assay in all cases: NCI-60 cell line screen, 48 h
[1] = tested on: 786-0 renal
[2] = tested on: A549 NSCLC
[3] = tested on: ACHN renal
[4] = tested on: BT-549 breast
[5] = tested on: CAKI-1 renal
[6] = tested on: CCRF-CEM leukemia
[7] = tested on: COLO 205 colon
[8] = tested on: DU-145 prostate
[9] = tested on: EKVX NSCLC
[10] = tested on: HCC-2998 colon
[11] = tested on: HCT-116 colon
[12] = tested on: HCT-15 colon
[13] = tested on: HOP-62 NSCLC
[14] = tested on: HOP-92 NSCLC
[15] = tested on: HS 578T breast
[16] = tested on: HT29 colon
[17] = tested on: IGROV1 ovarian
[18] = tested on: K-562 leukemia
[19] = tested on: KM12 colon
[20] = tested on: LOX IMVI melanoma
[21] = tested on: M14 melanoma
[22] = tested on: MCF7 breast
[23] = tested on: MDA-MB-231 breast
[24] = tested on: MDA-MB-435
[25] = tested on: MOLT-4 leukemia
[26] = tested on: NCI-H23 lung
[27] = tested on: NCI-H460 lung
[28] = tested on: NCI-H522 lung
[29] = tested on: NCI/ADR-RES ovarian
[30] = tested on: OVCAR-3 ovarian
[31] = tested on: OVCAR-4 ovarian
[32] = tested on: OVCAR-5 ovarian
[33] = tested on: OVCAR-8 ovarian
[34] = tested on: PC-3 prostate
[35] = tested on: RPMI-8226 leukemia
[36] = tested on: RXF 393 renal
[37] = tested on: SF-268 CNS
[38] = tested on: SF-295 CNS
[39] = tested on: SF-539 CNS
[40] = tested on: SK-MEL-2 melanoma
[41] = tested on: SK-MEL-28 melanoma
[42] = tested on: SK-MEL-5 melanoma
[43] = tested on: SK-OV-3 ovarian
[44] = tested on: SN12C renal
[45] = tested on: SNB-19 CNS
[46] = tested on: SNB-75 CNS
[47] = tested on: SW-620 colon
[48] = tested on: T-47D breast
[49] = tested on: TK-10 renal
[50] = tested on: U251 CNS
[51] = tested on: UACC-257 melanoma
[52] = tested on: UACC-62 melanoma
[53] = tested on: UO-31 renal
[54] = tested on: SR leukemia
[55] = tested on: A498 renal
[56] = tested on: MALME-3M melanoma
[57] = tested on: NCI-H226 lung

## NS(=O)(=O)c1ccc(N2N=C3c4ccccc4CC3C2c2cccs2)cc1 (stereo not given)
[1]
  GI50: 17.6 µM
  TGI: 41.7 µM
[2]
  GI50: 13.1 µM
  TGI: 32.1 µM
[3]
  GI50: 19.8 µM
  TGI: 36.3 µM
[4]
  GI50: 19.3 µM
  TGI: 51.7 µM
[5]
  GI50: 19.6 µM
  TGI: 38.2 µM
[6]
  GI50: 31.8 µM
  TGI: > 100 µM
[7]
  GI50: 58.9 µM
  TGI: > 100 µM
[8]
  GI50: 14.5 µM
  TGI: 37.7 µM
[9]
  GI50: 15.9 µM
  TGI: 52.5 µM
[10]
  GI50: 14.8 µM
  TGI: 39.6 µM
[11]
  GI50: 10.7 µM
  TGI: 25 µM
[12]
  GI50: 34.7 µM
  TGI: > 100 µM
[13]
  GI50: 16.9 µM
  TGI: 36.8 µM
[14]
  GI50: 25.8 µM
  TGI: 55.8 µM
[15]
  GI50: 28.7 µM
  TGI: 76.9 µM
[16]
  GI50: 26.1 µM
  TGI: > 100 µM
[17]
  GI50: 30 µM
  TGI: 89.9 µM
[18]
  GI50: 5.75 µM
  TGI: 81.9 µM
[19]
  GI50: 15.7 µM
  TGI: 57.2 µM
[20]
  GI50: 19.1 µM
  TGI: 42.6 µM
[21]
  GI50: 26 µM
  TGI: > 100 µM
[22]
  GI50: > 100 µM
  TGI: > 100 µM
[23]
  GI50: 16.8 µM
  TGI: 40.8 µM
[24]
  GI50: 19.3 µM
  TGI: 48.1 µM
[25]
  GI50: 18.9 µM
  TGI: > 100 µM
[26]
  GI50: 20.3 µM
  TGI: 48.7 µM
[27]
  GI50: > 100 µM
  TGI: > 100 µM
[28]
  GI50: 39.3 µM
  TGI: > 100 µM
[29]
  GI50: 17.1 µM
  TGI: 43.4 µM
[30]
  GI50: 24.8 µM
  TGI: 47.8 µM
[31]
  GI50: > 100 µM
  TGI: > 100 µM
[32]
  GI50: 26.6 µM
  TGI: > 100 µM
[33]
  GI50: 15.3 µM
  TGI: 40.1 µM
[34]
  GI50: 22.1 µM
  TGI: 59.5 µM
[35]
  GI50: 32.3 µM
  TGI: > 100 µM
[36]
  GI50: 20.6 µM
  TGI: 62.6 µM
[37]
  GI50: > 100 µM
  TGI: > 100 µM
[38]
  GI50: 16.2 µM
  TGI: 34.4 µM
[39]
  GI50: 17.4 µM
  TGI: 48.1 µM
[40]
  GI50: > 100 µM
  TGI: > 100 µM
[41]
  GI50: 75.6 µM
  TGI: > 100 µM
[42]
  GI50: 18 µM
  TGI: 43.5 µM
[43]
  GI50: 48 µM
  TGI: > 100 µM
[44]
  GI50: 23.5 µM
  TGI: 48.9 µM
[45]
  GI50: 34.4 µM
  TGI: > 100 µM
[46]
  GI50: 31.1 µM
  TGI: > 100 µM
[47]
  GI50: 35.4 µM
  TGI: > 100 µM
[48]
  GI50: 66.9 µM
  TGI: > 100 µM
[49]
  GI50: 13.2 µM
  TGI: 34.1 µM
[50]
  GI50: 19.4 µM
  TGI: 39.6 µM
[51]
  GI50: 29.7 µM
  TGI: 73.7 µM
[52]
  GI50: 21.8 µM
  TGI: 44.3 µM
[53]
  GI50: 39.4 µM
  TGI: > 100 µM

## O=C1NC(=O)C(Cc2cccc(OCc3ccccc3)c2)C(=O)N1
[54]
  GI50: 4.07 µg/mL

## Oc1c(Cl)cc(Cl)c2ccc(Cn3cc(-c4cc(C(F)(F)F)cc(C(F)(F)F)c4)nn3)nc12
[1]
  GI50: 1.97 µM
  TGI: 4.47 µM
[55]
  GI50: 2.6 µM
  TGI: 10.8 µM
[2]
  GI50: 15.8 µM
  TGI: 31.6 µM
[3]
  GI50: 1.25 µM
  TGI: 2.5 µM
[4]
  GI50: 1.84 µM
  TGI: 4.41 µM
[5]
  GI50: 1.16 µM
  TGI: 2.53 µM
[6]
  GI50: 0.305 µM
  TGI: 5.49 µM
[7]
  GI50: 1.35 µM
  TGI: 2.89 µM
[8]
  GI50: 1.57 µM
  TGI: 3.06 µM
[9]
  GI50: 7.65 µM
  TGI: 21 µM
[10]
  GI50: 7.72 µM
  TGI: 21.4 µM
[11]
  GI50: 0.481 µM
  TGI: 1.76 µM
[12]
  GI50: 1.58 µM
  TGI: 3.55 µM
[13]
  GI50: 15.5 µM
  TGI: 30.7 µM
[14]
  GI50: 1.45 µM
  TGI: 4.03 µM
[15]
  GI50: 2.98 µM
  TGI: 9.3 µM
[16]
  GI50: 2.04 µM
  TGI: 5.1 µM
[17]
  GI50: 1.5 µM
  TGI: 3.47 µM
[18]
  GI50: 0.313 µM
  TGI: > 100 µM
[19]
  GI50: 10.5 µM
  TGI: 23.4 µM
[20]
  GI50: 0.317 µM
  TGI: 1.28 µM
[21]
  GI50: 1.61 µM
  TGI: 3.45 µM
[56]
  GI50: 1.47 µM
  TGI: 3.21 µM
[22]
  GI50: 0.526 µM
  TGI: 2.1 µM
[23]
  GI50: 2 µM
  TGI: 4.95 µM
[24]
  GI50: 1.82 µM
  TGI: 4.18 µM
[25]
  GI50: 0.823 µM
  TGI: 5.91 µM
[57]
  GI50: 4.93 µM
  TGI: 21 µM
[26]
  GI50: 3.05 µM
  TGI: 9.88 µM
[27]
  GI50: 18.2 µM
  TGI: 35.2 µM
[28]
  GI50: 1.25 µM
  TGI: 3.55 µM
[29]
  GI50: 22.1 µM
  TGI: 71.6 µM
[30]
  GI50: 1.28 µM
  TGI: 2.56 µM
[31]
  GI50: 1.27 µM
  TGI: 2.75 µM
[32]
  GI50: 2.9 µM
  TGI: 9.23 µM
[33]
  GI50: 2.79 µM
  TGI: 9.94 µM
[34]
  GI50: 2.81 µM
  TGI: 10.3 µM
[35]
  GI50: 1.32 µM
  TGI: 4.74 µM
[36]
  GI50: 0.555 µM
  TGI: 1.97 µM
[37]
  GI50: 4.22 µM
  TGI: 17.5 µM
[38]
  GI50: 17 µM
  TGI: 31 µM
[39]
  GI50: 1.53 µM
  TGI: 2.94 µM
[40]
  GI50: 2.71 µM
  TGI: 9.56 µM
[41]
  GI50: 1.7 µM
  TGI: 3.48 µM
[42]
  GI50: 2.98 µM
  TGI: 10.7 µM
[43]
  GI50: 16.4 µM
  TGI: 30.1 µM
[44]
  GI50: 3.11 µM
  TGI: 11.8 µM
[45]
  GI50: 8.28 µM
  TGI: 21.8 µM
[46]
  GI50: 1.47 µM
  TGI: 8.09 µM
[54]
  GI50: 0.714 µM
  TGI: 5.68 µM
[47]
  GI50: 0.473 µM
  TGI: 1.81 µM
[48]
  GI50: 1.67 µM
  TGI: 5.55 µM
[49]
  GI50: 1.82 µM
  TGI: 3.83 µM
[50]
  GI50: 4.52 µM
  TGI: 16.8 µM
[51]
  GI50: 1.22 µM
  TGI: 2.99 µM
[52]
  GI50: 2.15 µM
  TGI: 6.65 µM
[53]
  GI50: 1.6 µM
  TGI: 5.51 µM

## C[N+](C)(C)C(CSSCC(C(=O)[O-])[N+](C)(C)C)C(=O)[O-] (stereo not given)
[14]
  GI50: 72.1 µM
[24]
  GI50: 25.5 µM
  TGI: 71.2 µM
[46]
  GI50: 32.5 µM
